Reference: PubChem BioAssay AID1963869 (Molecular Pharmacology Branch, DTP, NCI, 2024)

Test system: KRAS patient-derived spheroids with HUVEC/MSC, viability
Assay: Anticancer human tumor 323965-272-R-J2-PDC patient-derived pancreatic carcinoma cell line growth inhibition [KRAS2]
Details: for IC50: curve of first compound; for viability, T/C: stronger effect = lower value
Excerpt: Multicellular complex tumor spheroid response to RAS pathway inhibitors in combination with a targeted agents in patient-derived cell lines with oncogenic KRAS variants from multiple cancer types
A high-throughput screen of multi-cell type tumor spheroids was designed to identify active combinations of targeted small molecules and KRAS pathway inhibitors. Complex spheroids include a stromal component modeled by human endothelial cells (HUVEC) and fibroblasts modeled by human mesenchymal stem cells (MSCs). The concentration ranges selected for each drug and investigational agent were based upon clinically achievable concentrations if the clinical Cmax of the agent was known.
Compounds. The drugs and investigational agents: BI-3406 (NSC825286), BAY-293 (NSC824723), batoprotafib (TNO155; NSC825523), sotorasib (AMG 510; NSC818433), MRTX1257 (NSC819558), elimusertib (BAY 1895344; NSC800525), molibresib (GSK525762; NSC774829), temuterkib (LY3214996; NSC803410), venetoclax (NSC766270), alisertib (NSC759677), olaparib (NSC753686), talazoparib (NSC767125), erdafitinib (NSC781556), ipatasertib (NSC767898), cabozantinib (NSC761068), nintedanib (NSC756659), abemaciclib (NSC768073), docetaxel (NSC628503), trametinib (NSC758246), and sapanisertib (NSC764658) were obtained from the National Cancer Institute (NCI) Developmental Therapeutics Program Chemical Repository. The FDA-approved anticancer drug set is available from the Developmental Therapeutics Program. […] The stock solutions were prepared in dimethyl sulfoxide (DMSO, Sigma-Aldrich, St. Louis, MO, cat. D2650) at 800-fold the tested concentration and stored at -70 degrees C prior to their use. All drugs and investigational agents were tested over a range starting from a high concentration at or near the clinical Cmax and decreasing in half-log increments. If the clinical Cmax for an agent had not been determined, the highest concentration tested was 10 microM.
Cell Culture. All cells were maintained in an incubator at 37 degrees C and 5% CO2 with 95% humidity. The PDC lines were cultured according to standard operating procedures established by the NCI PDMR (https://pdmr.cancer.gov/sops/default.htm). Briefly, all PDCs were thawed and cultured in Matrigel-coated flasks prepared with a working solution of 1X Ham's F-12 nutrient mix, without supplementation (Invitrogen, Waltham, MA, cat. 11765054), 100 U/mL penicillin-streptomycin (Invitrogen, cat. 15140122), and 2.5% Matrigel (Corning Inc., Corning, NY, cat. 354248) for the first three passages. All PDCs were cultured in complete DMEM/F-12 media containing advanced DMEM/F-12 (Invitrogen, cat. 12634028), 4.9% defined fetal bovine serum, heat inactivated (HyClone Laboratories Inc., Logan, UT, cat. SH30070.03HI), 389 ng/mL hydrocortisone (Sigma-Aldrich, cat. H4001), 9.7 ng/mL human EGF recombinant protein (Invitrogen, cat. PHG0313), 23.4 microg/mL adenine (Sigma-Aldrich, cat. A2786), 97.3 U/mL penicillin-streptomycin (Invitrogen, cat. 15140122), 1.9 mM L-glutamine (Invitrogen, cat. 25030081), and 9.7 microM Y-27632 dihydrochloride (Tocris Bioscience, Bristol, United Kingdom, cat. 1254). The PDCs were cultured in complete DMEM/F12 media without 9.7 microM Y-27632 dihydrochloride for at least two passages prior to the screen. The established cell line HOP-62 was cultured in RPMI 1640 medium, HEPES (Invitrogen, cat. 22400105) with 10% defined fetal bovine serum (HyClone Laboratories Inc., cat. SH30070.03) and 2 mM L-glutamine (Invitrogen, cat. 25030081). The pooled donor HUVEC were cultured in endothelial cell growth medium 2 (PromoCell, Heidelberg, Germany, cat. C-22011) and the hMSC were cultured in mesenchymal stem cell growth medium 2 (PromoCell, cat. C-28009). For all experiments, HUVEC and hMSC were used at passages </=5, while the malignant cell lines were used at passages </=15. […]

[1] = second compound 0.1 µM, first compound 0.0316 µM
[2] = second compound 0.1 µM, first compound 0.1 µM
[3] = second compound 0.1 µM, first compound 0.316 µM
[4] = second compound 0.1 µM, first compound 1 µM
[5] = second compound 0.316 µM, first compound 0.0316 µM
[6] = second compound 0.316 µM, first compound 0.1 µM
[7] = second compound 0.316 µM, first compound 0.316 µM
[8] = second compound 0.316 µM, first compound 1 µM
[9] = second compound 1 µM, first compound 0.0316 µM
[10] = second compound 1 µM, first compound 0.1 µM
[11] = second compound 1 µM, first compound 0.316 µM
[12] = second compound 1 µM, first compound 1 µM
[13] = second compound 3.16 µM, first compound 0.0316 µM
[14] = second compound 3.16 µM, first compound 0.1 µM
[15] = second compound 3.16 µM, first compound 0.316 µM
[16] = second compound 3.16 µM, first compound 1 µM
[17] = second compound 10 µM, first compound 0.0316 µM
[18] = second compound 10 µM, first compound 0.1 µM
[19] = second compound 10 µM, first compound 0.316 µM
[20] = second compound 10 µM, first compound 1 µM
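Note: spheroids exposed to agents for 7 days.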
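Throughout, for viability, T/C: 100% = DMSO vehicle control viability.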

For `COC(=O)c1ccc2c(C(=Nc3ccc(N(C)C(=O)CN4CCN(C)CC4)cc3)c3ccccc3)c(O)[nH]c2c1` + CNCc1ccccc1-c1csc(C(C)Nc2nc(C)nc3cc(OC)c(OC)cc23)c1, which IC50 (second compound 0.1 µM) is on record?
The IC50 was > 10000 nM.

And the IC50 (second compound 0.316 µM)?
Its IC50 is > 10000 nM.

What about the IC50 (second compound 1 µM) of the same molecule?
The IC50 was > 10000 nM.

And the IC50 (second compound 3.16 µM)?
Its IC50 is > 10000 nM.

And the IC50 (second compound 10 µM)?
Its IC50 is < 31.6 nM.

And the viability, T/C [1]?
Its viability, T/C is 94.9%.

What about the viability, T/C [2] of the same molecule?
The viability, T/C was 90%.

What about the viability, T/C [3] of the same molecule?
The viability, T/C was 102%.

What about the viability, T/C [4] of the same molecule?
The viability, T/C was 94.2%.

What about the viability, T/C (second compound 0.1 µM, first compound 3.16 µM) of the same molecule?
The viability, T/C was 95.7%.

And the viability, T/C (second compound 0.1 µM, first compound 10 µM)?
The viability, T/C was 89.2%.

What about the viability, T/C [5] of the same molecule?
The viability, T/C was 90.6%.

What about the viability, T/C [6] of the same molecule?
Its viability, T/C is 88.4%.

What about the viability, T/C [7] of the same molecule?
Its viability, T/C is 97%.

What about the viability, T/C [8] of the same molecule?
Its viability, T/C is 98.2%.

What about the viability, T/C (second compound 0.316 µM, first compound 3.16 µM) of the same molecule?
Its viability, T/C is 94.3%.

And the viability, T/C (second compound 0.316 µM, first compound 10 µM)?
The viability, T/C was 86.5%.

And the viability, T/C [9]?
Its viability, T/C is 90.3%.

What about the viability, T/C [10] of the same molecule?
Its viability, T/C is 90.8%.

And the viability, T/C [11]?
Its viability, T/C is 85.7%.

And the viability, T/C [12]?
Its viability, T/C is 79.6%.

And the viability, T/C (second compound 1 µM, first compound 3.16 µM)?
The viability, T/C was 93.7%.

And the viability, T/C (second compound 1 µM, first compound 10 µM)?
Its viability, T/C is 90.4%.

And the viability, T/C [13]?
Its viability, T/C is 102%.

What about the viability, T/C [14] of the same molecule?
Its viability, T/C is 105%.

What about the viability, T/C [15] of the same molecule?
The viability, T/C was 99.6%.

What about the viability, T/C [16] of the same molecule?
The viability, T/C was 103%.

And the viability, T/C (second compound 3.16 µM, first compound 3.16 µM)?
Its viability, T/C is 90%.

And the viability, T/C (second compound 3.16 µM, first compound 10 µM)?
The viability, T/C was 88.6%.

And the viability, T/C [17]?
Its viability, T/C is 0.33%.

And the viability, T/C [18]?
The viability, T/C was 1.26%.

And the viability, T/C [19]?
Its viability, T/C is 0.33%.

And the viability, T/C [20]?
The viability, T/C was 0.3%.

And the viability, T/C (second compound 10 µM, first compound 3.16 µM)?
Its viability, T/C is 0.44%.

What about the viability, T/C (second compound 10 µM, first compound 10 µM) of the same molecule?
The viability, T/C was 0.35%.

Which IC50 (second compound 0.1 µM) does the source give for `CCN1CCN(Cc2ccc(Nc3ncc(F)c(-c4cc(F)c5nc(C)n(C(C)C)c5c4)n3)nc2)CC1` + COc1cc2nc(C)nc(NC(C)c3cc(N)cc(C(F)(F)F)c3)c2cc1OC1CCOC1 here?
The IC50 was 90.2 nM.

And the IC50 (second compound 0.316 µM)?
The IC50 was 25.9 nM.

What about the IC50 (second compound 1 µM) of the same molecule?
The IC50 was 32.6 nM.

What about the IC50 (second compound 3.16 µM) of the same molecule?
The IC50 was 21.9 nM.

What about the IC50 (second compound 10 µM) of the same molecule?
The IC50 was 75.6 nM.

And the viability, T/C (second compound 0.1 µM, first compound 0.00316 µM)?
Its viability, T/C is 85.5%.

What about the viability, T/C (second compound 0.1 µM, first compound 0.01 µM) of the same molecule?
The viability, T/C was 78.3%.

And the viability, T/C [1]?
The viability, T/C was 59.5%.

What about the viability, T/C [2] of the same molecule?
Its viability, T/C is 48.2%.

And the viability, T/C [3]?
Its viability, T/C is 44.4%.

What about the viability, T/C [4] of the same molecule?
The viability, T/C was 51.4%.

And the viability, T/C (second compound 0.316 µM, first compound 0.00316 µM)?
The viability, T/C was 75.2%.

And the viability, T/C (second compound 0.316 µM, first compound 0.01 µM)?
Its viability, T/C is 59%.

And the viability, T/C [5]?
Its viability, T/C is 50%.

What about the viability, T/C [6] of the same molecule?
The viability, T/C was 41.7%.

What about the viability, T/C [7] of the same molecule?
The viability, T/C was 37.8%.

What about the viability, T/C [8] of the same molecule?
The viability, T/C was 48.3%.

And the viability, T/C (second compound 1 µM, first compound 0.00316 µM)?
The viability, T/C was 65.7%.

What about the viability, T/C (second compound 1 µM, first compound 0.01 µM) of the same molecule?
Its viability, T/C is 59.9%.

And the viability, T/C [9]?
Its viability, T/C is 51.4%.

And the viability, T/C [10]?
Its viability, T/C is 42.9%.

What about the viability, T/C [11] of the same molecule?
Its viability, T/C is 41%.

What about the viability, T/C [12] of the same molecule?
Its viability, T/C is 48.3%.

And the viability, T/C (second compound 3.16 µM, first compound 0.00316 µM)?
Its viability, T/C is 85.2%.

And the viability, T/C (second compound 3.16 µM, first compound 0.01 µM)?
The viability, T/C was 64%.

And the viability, T/C [13]?
Its viability, T/C is 43.8%.

What about the viability, T/C [14] of the same molecule?
Its viability, T/C is 39.1%.

And the viability, T/C [15]?
Its viability, T/C is 32.7%.

And the viability, T/C [16]?
Its viability, T/C is 49.5%.

And the viability, T/C (second compound 10 µM, first compound 0.00316 µM)?
The viability, T/C was 86.6%.

And the viability, T/C (second compound 10 µM, first compound 0.01 µM)?
Its viability, T/C is 74%.

What about the viability, T/C [17] of the same molecule?
Its viability, T/C is 53.4%.

What about the viability, T/C [18] of the same molecule?
The viability, T/C was 48.7%.

And the viability, T/C [19]?
Its viability, T/C is 39.9%.

And the viability, T/C [20]?
The viability, T/C was 22.4%.
